{
  "source": "ChEMBL document CHEMBL1134693",
  "about": "“Synthesis and comparative molecular field analysis (CoMFA) of symmetric and nonsymmetric cyclic sulfamide HIV-1 protease inhibitors” (J Med Chem, 2001)",
  "key": {"[1]": {"molecular_target": "T1, Human immunodeficiency virus type 1 protease (Human immunodeficiency virus 1, UniProt Q72874)", "experiment": "Inhibition of HIV-1 protease by fluorometric assay"}, "[2]": {"molecular_target": "T1, Human immunodeficiency virus type 1 protease", "experiment": "Inhibition of recombinant HIV-1 protease measured by fluorometric assay"}},
  "data": [
    {"smiles": "O=S1(=O)N(Cc2cccc(I)c2)[C@@H](COc2ccccc2)[C@@H](O)[C@H](O)[C@H](COc2ccccc2)N1Cc1cccc(I)c1", "values": [
      {"measurement": "Ki", "setting": "[1]", "result": 93.3, "unit": "nM"},
      {"measurement": "Ki", "setting": "[2]", "result": 93, "unit": "nM"}
    ]},
    {"smiles": "CN1[C@@H](COc2ccccc2)[C@@H](O)[C@H](O)[C@H](COc2ccccc2)N(Cc2ccccc2)S1(=O)=O", "values": [
      {"measurement": "Ki", "setting": "[1]", "result": 513, "unit": "nM"},
      {"measurement": "Ki", "setting": "[2]", "result": 510, "unit": "nM"}
    ]},
    {"smiles": "O=S1(=O)N(Cc2ccc(-c3cccs3)cc2)[C@@H](COc2ccccc2)[C@@H](O)[C@H](O)[C@H](COc2ccccc2)N1Cc1ccc(-c2cccs2)cc1", "values": [
      {"measurement": "Ki", "setting": "[1]", "result": 912, "unit": "nM"},
      {"measurement": "Ki", "setting": "[2]", "result": 920, "unit": "nM"}
    ]},
    {"smiles": "CNC(=O)CN1[C@@H](COc2ccccc2)[C@@H](O)[C@H](O)[C@H](COc2ccccc2)N(Cc2ccccc2)S1(=O)=O", "values": [
      {"measurement": "Ki", "setting": "[1]", "result": 1410, "unit": "nM"},
      {"measurement": "Ki", "setting": "[2]", "result": 1400, "unit": "nM"}
    ]},
    {"smiles": "O=C1N(Cc2ccccc2)[C@H](COc2ccccc2)[C@H](O)[C@@H](O)[C@@H](COc2ccccc2)N1Cc1ccccc1", "values": [
      {"measurement": "Ki", "setting": "[2]", "result": 11, "unit": "nM"}
    ]},
    {"smiles": "COC(=O)c1ccc(CN2[C@@H](COc3ccccc3)[C@@H](O)[C@H](O)[C@H](COc3ccccc3)N(Cc3ccc(C(=O)OC)cc3)S2(=O)=O)cc1", "values": [
      {"measurement": "Ki", "setting": "[1]", "result": 83.2, "unit": "nM"},
      {"measurement": "Ki", "setting": "[2]", "result": 84, "unit": "nM"}
    ]},
    {"smiles": "O=S1(=O)N(Cc2cccc(CCO)c2)[C@@H](COc2ccccc2)[C@@H](O)[C@H](O)[C@H](COc2ccccc2)N1Cc1cccc(CCO)c1", "values": [
      {"measurement": "Ki", "setting": "[1]", "result": 42.7, "unit": "nM"},
      {"measurement": "Ki", "setting": "[2]", "result": 43, "unit": "nM"}
    ]},
    {"smiles": "CN1[C@@H](COc2ccccc2)[C@@H](O)[C@H](O)[C@H](COc2ccccc2)N(C)S1(=O)=O", "values": [
      {"measurement": "Ki", "setting": "[1]", "result": 708, "unit": "nM"},
      {"measurement": "Ki", "setting": "[2]", "result": 710, "unit": "nM"}
    ]},
    {"smiles": "COC(Cc1cccc(CN2[C@@H](COc3ccccc3)[C@@H](O)[C@H](O)[C@H](COc3ccccc3)N(Cc3cccc(CC(OC)OC)c3)S2(=O)=O)c1)OC", "values": [
      {"measurement": "Ki", "setting": "[1]", "result": 537, "unit": "nM"},
      {"measurement": "Ki", "setting": "[2]", "result": 540, "unit": "nM"}
    ]},
    {"smiles": "C/C(=N\\O)c1cccc(CN2[C@H](COc3ccccc3)[C@H](O)[C@@H](O)[C@@H](COc3ccccc3)N(Cc3cccc(/C(C)=N/O)c3)S2(=O)=O)c1", "values": [
      {"measurement": "Ki", "setting": "[1]", "result": 3.39, "unit": "nM"},
      {"measurement": "Ki", "setting": "[2]", "result": 3.4, "unit": "nM"}
    ]},
    {"smiles": "CNC(=O)CN1[C@@H](COc2ccccc2)[C@@H](O)[C@H](O)[C@H](COc2ccccc2)N(CC(=O)NC)S1(=O)=O", "values": [
      {"measurement": "Ki", "setting": "[1]", "result": 25100, "unit": "nM"},
      {"measurement": "Ki", "setting": "[2]", "result": 25000, "unit": "nM"}
    ]},
    {"smiles": "O=C(CN1[C@@H](COc2ccccc2)[C@@H](O)[C@H](O)[C@H](COc2ccccc2)N(Cc2cccc(-c3cccs3)c2)S1(=O)=O)Nc1nccs1", "values": [
      {"measurement": "Ki", "setting": "[1]", "result": 141, "unit": "nM"},
      {"measurement": "Ki", "setting": "[2]", "result": 140, "unit": "nM"}
    ]},
    {"smiles": "O=S1(=O)N(Cc2ccccc2)[C@H](COc2ccccc2)[C@H](O)[C@@H](O)[C@@H](COc2ccccc2)N1Cc1ccccc1", "values": [
      {"measurement": "Ki", "setting": "[1]", "result": 22.9, "unit": "nM"},
      {"measurement": "Ki", "setting": "[2]", "result": 23, "unit": "nM"}
    ]},
    {"smiles": "CC(=O)c1cccc(CN2[C@@H](COc3ccccc3)[C@@H](O)[C@H](O)[C@H](COc3ccccc3)N(Cc3cccc(C(C)=O)c3)S2(=O)=O)c1", "values": [
      {"measurement": "Ki", "setting": "[1]", "result": 58.9, "unit": "nM"},
      {"measurement": "Ki", "setting": "[2]", "result": 59, "unit": "nM"}
    ]},
    {"smiles": "O=S1(=O)N(Cc2ccccc2)[C@@H](COc2ccccc2)[C@@H](O)[C@H](O)[C@H](COc2ccccc2)N1Cc1ccc(-c2cccs2)cc1", "values": [
      {"measurement": "Ki", "setting": "[1]", "result": 63.1, "unit": "nM"},
      {"measurement": "Ki", "setting": "[2]", "result": 63, "unit": "nM"}
    ]},
    {"smiles": "O=S1(=O)N(Cc2ccc(CO)cc2)[C@@H](COc2ccccc2)[C@@H](O)[C@H](O)[C@H](COc2ccccc2)N1Cc1ccc(CO)cc1", "values": [
      {"measurement": "Ki", "setting": "[1]", "result": 3.09, "unit": "nM"},
      {"measurement": "Ki", "setting": "[2]", "result": 3.1, "unit": "nM"}
    ]},
    {"smiles": "O=S1(=O)N(Cc2ccccc2)[C@@H](COc2ccccc2)[C@@H](O)[C@H](O)[C@H](COc2ccccc2)N1Cc1cccc(-c2cccs2)c1", "values": [
      {"measurement": "Ki", "setting": "[1]", "result": 85.1, "unit": "nM"},
      {"measurement": "Ki", "setting": "[2]", "result": 86, "unit": "nM"}
    ]},
    {"smiles": "O=C(CN1[C@@H](COc2ccccc2)[C@@H](O)[C@H](O)[C@H](COc2ccccc2)N(Cc2ccccc2)S1(=O)=O)Nc1nccs1", "values": [
      {"measurement": "Ki", "setting": "[1]", "result": 347, "unit": "nM"},
      {"measurement": "Ki", "setting": "[2]", "result": 350, "unit": "nM"}
    ]},
    {"smiles": "O=C(CN1[C@@H](COc2ccccc2)[C@@H](O)[C@H](O)[C@H](COc2ccccc2)N(Cc2cccc(I)c2)S1(=O)=O)Nc1nccs1", "values": [
      {"measurement": "Ki", "setting": "[1]", "result": 513, "unit": "nM"},
      {"measurement": "Ki", "setting": "[2]", "result": 510, "unit": "nM"}
    ]},
    {"smiles": "CNC(=O)c1cccc(CN2[C@@H](COc3ccccc3)[C@@H](O)[C@H](O)[C@H](COc3ccccc3)N(Cc3cccc(C(=O)NC)c3)S2(=O)=O)c1", "values": [
      {"measurement": "Ki", "setting": "[1]", "result": 38.9, "unit": "nM"},
      {"measurement": "Ki", "setting": "[2]", "result": 39, "unit": "nM"}
    ]},
    {"smiles": "O=C(CN1[C@@H](COc2ccccc2)[C@@H](O)[C@H](O)[C@H](COc2ccccc2)N(Cc2ccc(-c3cccs3)cc2)S1(=O)=O)Nc1nccs1", "values": [
      {"measurement": "Ki", "setting": "[1]", "result": 1780, "unit": "nM"},
      {"measurement": "Ki", "setting": "[2]", "result": 1800, "unit": "nM"}
    ]},
    {"smiles": "O=S1(=O)N(Cc2cccc(-c3cccs3)c2)[C@@H](COc2ccccc2)[C@@H](O)[C@H](O)[C@H](COc2ccccc2)N1Cc1cccc(-c2cccs2)c1", "values": [
      {"measurement": "Ki", "setting": "[1]", "result": 2190, "unit": "nM"},
      {"measurement": "Ki", "setting": "[2]", "result": 2200, "unit": "nM"}
    ]},
    {"smiles": "O=S1(=O)N(Cc2ccc(-c3cccs3)cc2)[C@@H](COc2ccccc2)[C@@H](O)[C@H](O)[C@H](COc2ccccc2)N1Cc1cccc(-c2cccs2)c1", "values": [
      {"measurement": "Ki", "setting": "[1]", "result": 6030, "unit": "nM"},
      {"measurement": "Ki", "setting": "[2]", "result": 6000, "unit": "nM"}
    ]}
  ]
}
